Consider six compounds from paper PMC8594587 (Journal of medicinal chemistry, 2021).

Molecules are shown by their SMILES. Bounds are passed on as bounds.

One series has as its system HIV-2 ROD. The series can be described thus: Anti-HIV-2 ROD activity in MT-4 cells, MTT method. The following applies: Human immunodeficiency virus 2, MT4, read-out: EC50 ROD. The class given is cell-based.
The nature of the next series: in vivo. The following applies: Sprague-Dawley, rat, iv, 2 mg/kg.
Series [1] can be described thus: Acute toxicity test in Kunming mice. Particulars: Kunming, mouse, in vivo, po. The class given is in vivo.
For a further series, the system named is Kunming mice. Put plainly: Acute toxicity test in Kunming mice. The class given is in vivo. The following applies: Kunming mice.
For series [2], the system named is HIV-1 K103N+Y181C (RES056). The series can be described thus: microbe, parasite or virus in culture. The following applies: Human immunodeficiency virus 1, MT4, read-out: EC50 RES056. The format is cell-based.
A further series deals with HIV-1 F227L+V106A. The class given is cell-based. The following applies: Human immunodeficiency virus 1, MT4, read-out: EC50 F227L+V106A.

Regarding `Cc1cc(C#N)cc(C)c1Oc1nc(NC2CCN(Cc3ccc(S(N)(=O)=O)cc3)CC2)ncc1-c1cccs1` [Compound 11a, 4-((4-((4-(4-cyano-2,6-dimethylphenoxy)-5-(thiophen-2-yl)pyrimidin-2-yl)amino)piperidin-1-yl)methyl)benzenesulfonamide], the EC50 with HIV-2 ROD was not below 33.4 µM.
In the case of `Cc1cc(C#N)cc(C)c1Oc1nc(NC2CCN(Cc3ccc(S(N)(=O)=O)cc3)CC2)ncc1-c1ccsc1` [Compound 12a, 4-((4-((4-(4-cyano-2,6-dimethylphenoxy)-5-(thiophen-3-yl)pyrimidin-2-yl)amino)piperidin-1-yl)methyl)benzenesulfonamide], in the series with HIV-2 ROD, the EC50 was more than 6.12 µM.
With `Cc1cc(C#N)cc(C)c1Oc1nc(NC2CCN(Cc3ccc(S(C)(=O)=O)cc3)CC2)ncc1-c1ccco1` [Compound 13b, 4-((5-(furan-2-yl)-2-((1-(4-(methylsulfonyl)benzyl)piperidin-4-yl)amino)pyrimidin-4-yl)oxy)-3,5-dimethylbenzonitrile], the concentration giving a half-maximal response (EC50) in the series on HIV-2 ROD is more than 7.46 µM.
On the same count and under the same terms, the same measure for `Cc1cc(C#N)cc(C)c1Oc1nc(NC2CCN(Cc3ccc(C(N)=O)cc3)CC2)ncc1-c1ccoc1` [Compound 14c, 4-((4-((4-(4-cyano-2,6-dimethylphenoxy)-5-(furan-3-yl)pyrimidin-2-yl)amino)piperidin-1-yl)methyl)benzamide]: more than 182 µM.
With `Cc1cc(C#N)cc(C)c1Oc1nc(NC2CCN(Cc3ccc(C(N)=O)cc3)CC2)ncc1-c1ccncc1` [Compound 16c, 4-((4-((4-(4-cyano-2,6-dimethylphenoxy)-5-(pyridin-4-yl)pyrimidin-2-yl)amino)piperidin-1-yl)methyl)benzamide], in the series on HIV-2 ROD, the EC50 is more than 36 µM. Moreover, the time of peak concentration (Tmax) in the series “in vivo” was determined as 1.98 min. This compound came in with an LD50 at 2 weeks in series [1] of more than 2000 mg/kg. The “acute toxicity, tolerability” value in the series on Kunming mice (single oral dose) was “well-tolerated up to a dose of 2000 mg/kg with no acute toxicity”. Moreover, the body weight change result in the series with Kunming mice (single oral dose 2000 mg/kg) is recorded as “no abnormality of body weight changed”. Further, the “toxic symptoms or mortality” value in the series with Kunming mice (single oral dose 2000 mg/kg, subsequent two weeks) is listed as “did not exhibit any toxic symptoms or mortality”.
On to `Cc1cc(C#N)cc(C)c1Oc1nc(Nc2ccc(C#N)cc2)nc(N)c1Br` [ETR, etravirine], for which the results for the EC50 (in series [2]; in the series with HIV-1 F227L+V106A) were 0.0522 ± 0.0242 µM and 0.0269 ± 0.0023 µM, respectively.
